Results as given in ChEMBL document CHEMBL1159088, “Design, synthesis and biological evaluation of simplified analogues of the RNA polymerase inhibitor etnangien” (Bioorg Med Chem Lett, 2010).
Values after ≈ are worked out from the molar mass of the structure shown.

How the values were obtained:
Saccharomyces cerevisiae = test: Antibacterial activity against Saccharomyces cerevisiae; format: functional
Escherichia coli = test: Antibacterial activity against Escherichia coli; format: functional
Staphylococcus aureus = test: Antibacterial activity against Staphylococcus aureus; format: functional
Micrococcus luteus = test: Antibacterial activity against Micrococcus luteus; format: functional
[1] = system: Corynebacterium glutamicum; test: Antibacterial activity against Corynebacterium glutamicum; format: functional
Mycolicibacterium phlei = test: Antibacterial activity against Mycobacterium phlei; format: functional
[2] = Chemical stability after 48 hrs; format: physicochemical; conditions: read-out: Stability
[3] = Chemical stability at pH >10; format: physicochemical
[4] = Chemical stability at pH 7; format: physicochemical; conditions: buffer
[5] = Chemical stability at pH >3; format: physicochemical

Compound | MIC (Saccharomyces cerevisiae) [µg/mL] | MIC (Escherichia coli) [µg/mL] | MIC (Staphylococcus aureus) [µg/mL] | MIC (Micrococcus luteus) [µg/mL] | MIC [1] [µg/mL] | MIC (Mycolicibacterium phlei) [µg/mL] | remaining at 48 h [2] [%] | Stability [3] | Stability [4] | Stability [5]
CO[C@@H]1C/C=C\C=C\C[C@H](C)[C@H]2OC(C)(C)O[C@H]([C@H]2C)[C@H](C)[C@H](O)CC(=O)O[C@H]([C@H](C)[C@H](O)/C=C(C)/C=C/CO)C[C@H](O)CCC1 | > 20 | > 20 | > 20 | > 20 | 10 (≈ 15.4 µM) | 20 (≈ 30.7 µM) |  |  |  | 
COc1ccc(COC[C@@H](C)[C@@H](O)C[C@H]2CCC[C@H](OC)C/C=C\C=C\C[C@H](C)[C@@H](O)[C@H](C)[C@@H](O)[C@H](C)[C@H](O)CC(=O)O2)cc1 | > 20 | > 20 | > 20 | > 20 | 20 (≈ 31.5 µM) | > 20 |  |  |  | 
COc1ccc(COC[C@@H](C)[C@@H]2C[C@H](O)CCC[C@H](OC)C/C=C\C=C\C[C@H](C)[C@@H](O)[C@H](C)[C@@H](O)[C@H](C)[C@H](O)CC(=O)O2)cc1 | > 20 | > 20 | > 20 | > 20 | 10 (≈ 15.8 µM) | 20 (≈ 31.5 µM) |  |  |  | 
COC(=O)CC/C=C(\C)[C@@H](O)C/C=C/C=C/C=C/C=C/C=C/C(C)=C/[C@@H](O)[C@@H](C)[C@@H]1C[C@H](O)CCC[C@H](OC)C/C=C\C=C\C[C@H](C)[C@@H](O)[C@H](C)[C@@H](O)[C@H](C)[C@H](O)CC(=O)O1 [ETNANGIEN METHYL ESTER] | > 40 | > 20 | 2.5 (≈ 2.92 µM) | 0.39 (≈ 0.456 µM) | 0.24 (≈ 0.281 µM) |  | < 5 | Unstable | Stable | Unstable
CO[C@@H]1C/C=C\C=C\C[C@H](C)[C@@H](O)[C@H](C)[C@@H](O)[C@H](C)[C@H](O)CC(=O)O[C@H]([C@H](C)[C@H](O)/C=C(C)/C=C/C=C/C=C/C=C/C=C/C[C@H](O)/C(C)=C/CCC(=O)O)C[C@H](O)CCC1 [ETNANGIEN] | > 80 | > 80 | 1 (≈ 1.19 µM) | 0.06 (≈ 0.0713 µM) | 0.03 (≈ 0.0357 µM) | 0.12 (≈ 0.143 µM) |  | Unstable | Stable | Unstable
